Data from US20070244190A1, “Neobritannilactone B and acetyl neobritannilactone B” (priority 2006, published 2007).

Legend:
[1] = system: HL-60 cells; test: Apoptosis (sub-G1) by flow cytometry; assay type: cell-based, human; settings: 24 h, mean ± SE
Protocol: (§1) Cell Culture and Chemicals. The COLO 205 and HT 29 cell lines were isolated from human colon adenocarcinoma (ATCC CCL-222 and HTB-38); human promyelocytic leukemia (HL-60) cells were obtained from American Type Culture Collection (Rockville, Md.). The human AGS gastric carcinoma cell lines (CCRC 60102) were obtained from the Food Industry Research and Development Institute (Hsinchu, Taiwan). Cell lines were grown at 37° C. in 5% CO2 dioxide atmosphere in RPMI for COLO 205, HT-29, and HL-60 cells and DMEM/F12 for AGS cells, all supplemented with 10% heat-inactivated fetal bovine serum (GIBCO BRL, Grand Island, N.Y.) (100 units/mL of penicillin, 100 μg/mL of streptomycin), and 2 mM L-glutamine (GIBCO BRL). Selected compounds were dissolved in dimethyl sulfoxide (DMSO). Propidium iodide was obtained from Sigma Chemical Co. (St. Louis, Mo.).
(§2) Flow Cytometry. Human cancer cells (2×10^5) were cultured in 60-mm Petri dishes and incubated for 24 h. The apoptotic cells (sub-G1) in the selected compounds and treated cells were measured by flow cytometry analysis. Then cells were harvested, washed with PBS, resuspended in 200 μL of PBS, and fixed in 800 μL of iced 100% ethanol at −20° C. After being left to stand overnight, the cell pellets were collected by centrifugation, resuspended in 1 mL of hypotonic buffer (0.5% Triton X-100 in PBS and 0.5 μg/mL RNase), and incubated at 37° C. for 30 min. Then 1 mL of propidium iodide solution (50 μg/mL) was added and the mixture was allowed to stand on ice for 30 min. Fluorescence emitted from the propidium iodide-DNA complex was quantitated after excitation of the fluorescent dye by FACScan cytometry (Becton Dickinson, San Jose, Calif.).
(§3) The compounds isolated from Inula were tested for their effects on the apoptotic ratio in human cancer cells.

[2] = system: AGS cells; test: Apoptosis (sub-G1) by flow cytometry; assay type: cell-based, human; settings: 24 h, mean ± SE
Protocol: as §1, §2, §3

[3] = system: HT-29 cells; test: Apoptosis (sub-G1) by flow cytometry; assay type: cell-based, human; settings: 24 h, mean ± SE
Protocol: as §1, §2, §3

[4] = system: COLO 205 cells; test: Apoptosis (sub-G1) by flow cytometry; assay type: cell-based, human; settings: 24 h, mean ± SE
Protocol: as §1, §2, §3

[5] = system: Bcl-XL in AGS cells; test: Western blot of Bcl-XL expression; assay type: cell-based, human; settings: for Bcl-XL expression: various concentrations, 24 hours, FIG. 7A
Protocol: Western Blotting. […] The total proteins were extracted via the addition of 200 μL of gold lysis buffer (50 mM Tris-HCl, pH 7.4; 1 mM NaF; 150 mM NaCl; 1 mM EGTA; 1 mM phenylmethanesulfonyl fluoride; 1% NP-40; and 10 μg/mL leupeptin) to the cell pellets on ice for 30 min, followed by centrifugation at 10,000 g for 30 min at 4° C. The cytosolic fraction (supernatant) proteins were measured by Bio-Rad protein assay (Bio-Rad Laboratories, Munich, Germany). The samples (50 μg of protein) were mixed with 5× sample buffer containing 0.3 M Tris-HCl (pH 6.8), 25% 2-mercaptoethanol, 12% sodium dodecyl sulfate (SDS), 25 mM EDTA, 20% glycerol, and 0.1% bromophenol blue. The mixtures were boiled at 100° C. for 5 min and were subjected to 12% SDS-polyacrylamide minigels at a constant current of 20 mA. Subsequently, electrophoresis was ordinarily carried out on SDS-polyacrylamide gels. For electrophoresis, proteins on the gel were electrotransferred onto an immobile membrane (PVDF; Millipore Corp., Bedford, Mass.) with transfer buffer composed of 25 mM Tris-HCl (pH 8.9), 192 mM glycine, and 20% methanol. The membranes were blocked with blocking solution containing 20 mM Tris-HCl and then immunoblotted with primary antibodies including, anti-Bcl-XL, anti-β-actin (Transduction Laboratory, Lexington, Ky.), anti-PARP (UBI, Inc., Lake Placid, N.Y.), at room temperature for 1 h. Detection was achieved by measuring the chemiluminescence of blotting agent (ECL, Amersham Corp., Arlington Heights, Ill.), after exposure of the filters to KODAK X-OMAT films.
Several gene products are known to be important in controlling the apoptotic process. The imbalance of expression of anti- and pro-apoptotic proteins after a stimulus is one of the major mechanisms underlying the ultimate fate of cells in the apoptotic process. Bcl-XL expression in tumor cells, for instance, confers resistance against chemotherapeutic drugs. The expression of anti-apoptotic protein Bcl-XL was therefore examined in cancer cells treated with various concentrations of NAB or ANAB for 24 hours. […] FIG. 7A. […] FIG. 7B.

[6] = system: HL-60 cells; test: Cell viability, trypan blue exclusion, 24 h; assay type: cell-based; settings: HL-60, 24 h, mean ± SE, n=3, read-out: IC50, growth of human cancer cells
Protocol: as §1
(§4) Determination of Cell Viability. Human cancer cells were treated either with DMSO (0.01%) or the selected compounds (5-100 μM). Cell viability was determined at 24 h based on trypan blue exclusion assay. The viability percentage was calculated based on the percentage of unstained cells. Suspensions of cells were diluted 1:1 with 0.5% trypan blue solution. Stained and unstained cells were counted in a hemocytometer.

[7] = system: AGS cells; test: Cell viability, trypan blue exclusion, 24 h; assay type: cell-based; settings: mean ± SE, n=3, read-out: IC50, growth of human cancer cells
Protocol: as §1, §4

[8] = system: HT-29 cells; test: Cell viability, trypan blue exclusion, 24 h; assay type: cell-based; settings: HT-29, 24 h, mean ± SE, n=3, read-out: IC50, growth of human cancer cells
Protocol: as §1, §4

[9] = system: COLO 205 cells; test: Cell viability, trypan blue exclusion, 24 h; assay type: cell-based; settings: COLO 205, 24 h, mean ± SE, n=3, read-out: IC50, growth of human cancer cells
Protocol: as §1, §4

SMILES | apoptotic ratio ([1]; HL-60, 5 μM) | apoptotic ratio ([1]; HL-60, 10 μM) | apoptotic ratio ([1]; HL-60, 25 μM) | apoptotic ratio ([1]; HL-60, 50 μM) | apoptotic ratio ([1]; HL-60, 100 μM) | apoptotic ratio ([2]; 5 μM) | apoptotic ratio ([2]; 10 μM) | apoptotic ratio ([2]; 25 μM) | apoptotic ratio ([2]; 50 μM) | apoptotic ratio ([2]; 100 μM) | apoptotic ratio ([3]; HT-29, 5 μM) | apoptotic ratio ([3]; HT-29, 10 μM) | apoptotic ratio ([3]; HT-29, 25 μM) | apoptotic ratio ([3]; HT-29, 50 μM) | apoptotic ratio ([3]; HT-29, 100 μM) | apoptotic ratio ([4]; COLO 205, 5 μM) | apoptotic ratio ([4]; COLO 205, 10 μM) | apoptotic ratio ([4]; COLO 205, 25 μM) | apoptotic ratio ([4]; COLO 205, 50 μM) | apoptotic ratio ([4]; COLO 205, 100 μM) | other results
C=C1C(=O)O[C@H]2/C=C(\C)CC/C=C(\C)C[C@H](OC(C)=O)[C@@H]12 [Compound 4, acetyl neobritannilactone B] | 22.93 ± 1.34% | 39.71 ± 2.85% | 95.17 ± 1.61% | 97.74 ± 0.44% | 98.05 ± .30% | 6.16 ± 1.17% | 7.87 ± 3.03% | 9.89 ± 4.44% | 13.64 ± 0.28% | 43.11 ± 0.99% | 20.38 ± .17% | 47.56 ± 0.00% | 69.70 ± .22% | 81.43 ± 1.46% | 82.47 ± 2.06% | 15.47 ± 1.69% | 34.72 ± 2.72% | 76.87 ± 2.39% | 96.92 ± 0.20% | 98.66 ± 0.10% | apoptotic ratio ([1]; HL-60, 25 μM, listed as ANAB): 95.17%; apoptotic ratio ([2]; 25 μM, listed as ANAB): 9.89%; apoptotic ratio ([3]; HT-29, 25 μM, listed as ANAB): 69.70%; apoptotic ratio ([4]; COLO 205, 25 μM, listed as ANAB): 76.87%; Bcl-XL expression over time ([5]; at 12 h, 15 μM, FIG. 7B): marked and significant change in the expression of Bcl-XL; Bcl-XL expression [5]: dose-dependent decrease of Bcl-XL; IC50 [6]: 16.2 µM; IC50 [7]: 5.4 µM; IC50 [8]: 57 µM; IC50 [9]: 14.7 µM
C=C1C(=O)OC2C=C(C)CCC=C(C)CC(O)C12 (stereo not drawn) [Compound 3, 4-hydroxy-3α,4,5,8,9,11α-hexahydro-6,10-dimethyl-3-methylene-cyclodeca[b]furan-2(3H)-one] | 9.82 ± 1.90% | 21.93 ± 2.81% | 77.57 ± 7.06% | 96.94 ± 0.57% | 98.29 ± 0.15% | 9.55 ± 3.05% | 8.66 ± 0.80% | 11.78 ± 1.40% | 15.95 ± 1.12% | 19.22 ± 0.57% | 13.58 ± 0.87% | 24.46 ± .88% | 66.54 ± 1.58% | 82.27 ± 1.68% | 87.02 ± 0.30% | 10.73 ± 2.31% | 14.12 ± 1.06% | 41.62 ± 6.34% | 89.11 ± 1.47% | 96.81 ± 0.51% | apoptotic ratio ([1]; HL-60, 25 μM, listed as NAB): 77.54%; apoptotic ratio ([2]; 25 μM, listed as NAB): 11.78%; apoptotic ratio ([3]; HT-29, 25 μM, listed as NAB): 66.54%; apoptotic ratio ([4]; COLO 205, 25 μM, listed as NAB): 41.62%; Bcl-XL expression [5]: dose-dependent decrease of Bcl-XL; IC50 [6]: 27.4 µM; IC50 [7]: 21.4 µM; IC50 [8]: 56.1 µM; IC50 [9]: 14.3 µM
